Where two headings read alike, the source gives them in different places.
Legend:
[1] = test system: MiaPaCa-2 cells; test: Clonogenic (colony formation) assay; type: cell-based, human
Method: Clonogenic assay. […] The plates were kept within the incubator and media changed every 3-4 days until the control cells formed sufficiently large clones. The cell survival fractions were calculated as previously described.
MiaPaCa-2 cells were treated with a range of concentrations as shown (FIG. 10C), and the number of colonies formed were counted.

[2] = test system: MiaPaCa-2 cells; test: Oxygen consumption rate in intact cells, Seahorse XF96; type: cell-based, human
Method: (§1) Respiratory enzyme activity in intact and permeabilized cells. The mitochondrial function in intact and permeabilized pancreatic cancer cells was measured using a Seahorse XF96 Extracellular Flux Analyzer (Seahorse Bioscience, North Billerica, Mass., USA). Unless specified otherwise, assays in intact cells were performed as previously described. Measurement of mitochondrial respiratory complexes in permeabilized cells was performed according to the manufacturer's instructions (Seahorse Bioscience). Briefly, intact cells were permeabilized using 1 nM Plasma Membrane Permeabilizer (PMP, Seahorse Bioscience) immediately before oxygen consumption rate (OCR) measurement by XF96. The oxygen consumption derived from mitochondrial complex I or complex II activity was measured by providing different substrates to mitochondria, e.g., pyruvate/malate for complex I and succinate for complex II activity. Rotenone, malonate and antimycin A were used as specific inhibitors of mitochondrial complex I, II and III activities, respectively.
Effects of Met and Mito-Met analogs on mitochondrial bioenergetics in MiaPaCa-2 cells. The oxygen consumption rate (OCR) and the extracellular acidification rate (ECAR) were measured as a readout of mitochondrial function and glycolysis using a Seahorse Bioscience XF96 extracellular flux analyzer. We compared the immediate OCR changes in response to different concentrations (e.g., IC50 or higher values determined by clonogenic assay) of Met, Mito-Met2, Mito-Met6, Mito-Met10, and phenformin (FIG. 13A).
Next we monitored the mitochondrial OCR changes in MiaPaCa-2 cells after 24 h treatment with Met, Mito-Met analogs, and phenformin followed by a washout of the treatments and return to fresh cell culture media.

[3] = test system: MiaPaCa-2 cells; test: Radiosensitization, clonogenic survival after X-radiation; type: cell-based, human; details: 24 h pretreatment (1 mM Met, 1 μM Mito-Met) before X-radiation
Method: MiaPaCa2 cells (1000 cells/well) were cultured in quadruplicate overnight in 96-well plates and changed to fresh medium.
Radiation experiments. […] The cells were then treated with X-radiation at a dose of 0, 2, 4, and 6 Gy. The control cells were treated with the same concentration of vehicle (0.1% DMSO) where appropriate. After irradiation, cells were suspended and seeded at various densities (100-8,000 cells per well) in 6-well plates for clonogenic assay as described above. The plates were kept within the incubator and media changed every 3-4 days for 2 weeks. Wells with 10-50 sufficiently large clones were chosen for calculating the cell survival fractions.
Effect of Mito-Met and Met on PDAC radiosensitivity. Both control cells and cells were pretreated for 24 h with 1 mM Met or Mito-Met (1 μM) prior to X-radiation. Cell survival was measured by a clonogenic assay.

[4] = mouse, in vivo
Method: In an initial proof-of-concept experiment, syngeneic KPC cells expressing Firefly luciferase (FC1242-luc) were orthotopically implanted to the pancreas of C57BL/6 mice and tumor growth monitored using bioluminescence imaging (FIG. 15F). Mice orthotopically autografted with FC1242-luc cells were treated daily with 1 mg/kg or 150 mg/kg Met, or 1 mg/kg Mito-Met. […] Serum from these animals was collected, and hepatic and kidney toxicity tested using standard AST, ALT, AP, and BUN assays, respectively.

[5] = test system: MCF-10A; test: IncuCyte cell confluence assay, nonmalignant breast epithelial cells; type: cell-based
Method: (§2) IncuCyte Analyzer-real time measurement of cell proliferation. The cell proliferation was measured using a label-free, noninvasive cellular confluence assay by IncuCyte Live-Cell Imaging Systems (Essen Bioscience, Ann Arbor, Mich., USA; IncuCyte FLR). This system enables collection of live cell images at 2 h intervals over several days. The IncuCyte Analyzer provides real-time cellular confluence data based on segmentation of high-definition phase-contrast images. The cell proliferation is expressed as an increase in percentage of cell confluence.

[6] = test system: HaCaT; test: IncuCyte cell confluence assay, keratinocytes; type: cell-based
Method: as §2

[7] = test system: MiaPaCa-2 cells; test: Intracellular uptake by LC-MS/MS; details: MiaPaCa-2, 1 μM, 1 h
Method: Cells were grown on 10 cm dishes and treated with the compounds for 24 h in full media.
Next we investigated the relative uptake of different Mito-Met analogs (Mito-Met2, Mito-Met6, and Mito-Met10) and phenformin in MiaPaCa-2 cells (FIG. 12D). Cells were treated with respective Mito-Met analog (1 μM) for 1 h. Cells were lysed after washing and analyzed for Mito-Met analog by LC-MS.

[8] = target: mitochondrial complex I (Homo sapiens, UniProt O75251+O75306+P03886); test: Complex I oxygen consumption (pyruvate/malate) in permeabilized cells, Seahorse XF96; type: cell-based; parameters: IC50, complex I oxygen consumption; other: permeabilized MiaPaCa-2, added acutely; details: permeabilized MiaPaCa-2, added acutely
mitochondrial complex I, sequence (P03886 whole entry): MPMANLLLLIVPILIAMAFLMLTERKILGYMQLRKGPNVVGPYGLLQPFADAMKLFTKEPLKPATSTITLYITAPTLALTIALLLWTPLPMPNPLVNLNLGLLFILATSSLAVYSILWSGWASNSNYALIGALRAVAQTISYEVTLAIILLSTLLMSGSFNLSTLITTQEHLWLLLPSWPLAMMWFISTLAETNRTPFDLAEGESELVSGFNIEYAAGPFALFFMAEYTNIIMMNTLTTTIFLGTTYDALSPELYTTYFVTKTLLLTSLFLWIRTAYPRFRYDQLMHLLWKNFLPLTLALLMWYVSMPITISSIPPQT
mitochondrial complex I, sequence (O75251 39-213): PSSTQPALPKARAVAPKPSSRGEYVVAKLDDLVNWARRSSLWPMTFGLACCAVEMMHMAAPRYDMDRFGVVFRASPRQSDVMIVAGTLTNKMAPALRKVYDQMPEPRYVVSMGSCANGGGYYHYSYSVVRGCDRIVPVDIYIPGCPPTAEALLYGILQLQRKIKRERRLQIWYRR
mitochondrial complex I, sequence (P03897 whole entry, further chain): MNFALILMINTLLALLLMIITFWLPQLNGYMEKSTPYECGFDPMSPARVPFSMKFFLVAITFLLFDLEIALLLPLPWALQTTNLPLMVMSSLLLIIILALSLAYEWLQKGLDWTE
mitochondrial complex I, sequence (O75306 34-463): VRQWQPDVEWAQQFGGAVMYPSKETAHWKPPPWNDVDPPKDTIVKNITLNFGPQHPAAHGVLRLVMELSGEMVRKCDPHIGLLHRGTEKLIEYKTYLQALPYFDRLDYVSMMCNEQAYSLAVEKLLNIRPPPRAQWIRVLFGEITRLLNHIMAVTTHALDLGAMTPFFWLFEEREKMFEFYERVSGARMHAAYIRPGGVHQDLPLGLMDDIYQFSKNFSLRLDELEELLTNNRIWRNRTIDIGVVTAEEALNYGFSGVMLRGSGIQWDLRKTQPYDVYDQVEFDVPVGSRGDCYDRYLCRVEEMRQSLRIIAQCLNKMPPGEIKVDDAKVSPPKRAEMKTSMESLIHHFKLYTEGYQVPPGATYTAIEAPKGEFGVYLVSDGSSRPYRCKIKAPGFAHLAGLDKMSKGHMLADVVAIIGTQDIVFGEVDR
mitochondrial complex I, sequence (O75489 37-264, further chain): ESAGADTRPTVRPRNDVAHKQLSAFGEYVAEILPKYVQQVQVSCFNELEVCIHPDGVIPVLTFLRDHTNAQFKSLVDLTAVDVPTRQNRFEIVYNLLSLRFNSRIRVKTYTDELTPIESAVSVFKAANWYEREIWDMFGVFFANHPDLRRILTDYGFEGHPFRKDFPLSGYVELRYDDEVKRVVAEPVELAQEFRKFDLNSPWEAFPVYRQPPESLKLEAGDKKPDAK
Method: as §1
The oxygen consumption rate was measured using the permeabilized MiaPaCa-2 cells in MAS buffer supplemented with pyruvate. The use of permeabilized cells avoids differences in cellular uptake of compounds. […] We tested the effect of pretreating cells with Mito-Met10 or Met using the permeabilized model. MiaPaCa-2 cells were treated with Met and Mito-Met10 for 24 h and the oxygen consumption studies were performed in these cells after permeabilization.

[9] = test system: MiaPaCa-2 cells; test: Sytox Green cytotoxicity assay; type: cell-based; details: 100 μM, 24 h
Method: Cytotoxicity assay. To determine the cytotoxicity of Mito-Met analogs and other TPP^+-conjugated to a long chain aliphatic hydrocarbon, we used the Sytox assay as described previously. MiaPaCa-2 cells were treated for 24 h, and dead cells were monitored in the presence of 200 nM Sytox Green (Invitrogen). The Sytox method labels the nuclei of dead cells yielding green fluorescence. Fluorescence intensities from the dead cells in 96-well plate were acquired in real time every 15 min after 4 h using a plate reader (BMG Labtech, Inc.) equipped with an atmosphere controller set at 37° C. and 5% CO2:95% air, using a fluorescence detection with 485 nm (excitation) and 535 nm (emission). To measure the total cell number, all of the samples in each treatment group were permeabilized by adding Triton X 100 (0.065%) in the presence of Sytox Green for 3 h, and maximal fluorescence intensities were taken as 100%. Data are represented as a percentage of dead cells after normalization to total cell number for each group.
Induction of cell death was monitored by Sytox Green staining, as shown previously. MiaPaCa-2 cells were treated with Mito-Met10 (100 μM), Mito-CP (100 μM), or Met (30 mM) and other controls for 24 h and cell death was measured in real time.

CN(C)C(=N)N=C(N)N [Metformin, metformin, reference compound]
colony formation ([1]; 3 mM, 24 h): Almost no colony formation
IC50 ([1]; read-out: IC50, colony formation / survival fraction, MiaPaCa-2, 24 h treatment): 1300 µM
concentration decreasing oxygen consumption ([2]; OCR measured immediately after addition): 1 to 10 mM
radiosensitization [3]: increased radiosensitization
Kidney BUN ([4]; 1 mg/kg): 30 ± 7 mg/dL
Liver ALT ([4]; 1 mg/kg): 35 ± 15 IU/L
Liver AST ([4]; 1 mg/kg): 189 ± 117 IU/L
Kidney BUN ([4]; 150 mg/kg): 22 ± 2 mg/dL
Liver ALT ([4]; 150 mg/kg): 19 ± 3 IU/L
Liver AST ([4]; 150 mg/kg): 127 ± 24 IU/L
effect on cell confluence [5]: not significantly affected
effect on cell confluence [6]: not significantly affected
cellular uptake compared with phenformin [7]: considerably lower than phenformin
concentration at which OCR was inhibited [8]: 3,000 μM

Br.N=C(N)NC(=N)NCC[P+](c1ccccc1)(c1ccccc1)c1ccccc1 [Mito-Met2]
concentration at which OCR was inhibited ([2]; 24 h treatment, washout): 25 µM

CC1(C)CC(OCCCCC[P+](c2ccccc2)(c2ccccc2)c2ccccc2)CC(C)(C)N1[O].[Br-] [Mito-Tempol, reference compound]
cell death, Sytox Green staining [9]: considerably more cytotoxic

[H]/N=C(/N)N/C(=N/[H])NCCc1ccccc1 [phenformin, reference compound]
concentration inhibiting OCR to the same extent as Met ([2]; immediate): ten-fold lower concentration

Reference: patent US20190358247A1 (The Medical College of Wisconsin, Inc., priority 2016, published 2019)
